Measured values as given in ChEMBL document CHEMBL3112395, “Synthesis and structure-activity relationship studies of N-terminal analogues of the antimicrobial peptide tridecaptin A(1)” (J Med Chem, 2014).
In brackets after ≈: the same amount, converted by molar mass.

Tests used:
Format in all cases: functional
[1] = system: Klebsiella pneumoniae; assay: Antibacterial activity against Klebsiella pneumoniae ATCC 13883 assessed as growth inhibition by broth dilution method
[2] = system: Escherichia coli; assay: Antibacterial activity against Escherichia coli ATCC 25922 assessed as growth inhibition by broth dilution method
[3] = system: Pseudomonas aeruginosa; assay: Antibacterial activity against Pseudomonas aeruginosa ATCC 27853 assessed as growth inhibition by broth dilution method
[4] = system: Salmonella enterica; assay: Antibacterial activity against Salmonella enterica ATCC 13311 assessed as growth inhibition by broth dilution method
[5] = system: Enterococcus faecium; assay: Antibacterial activity against Enterococcus faecium ATCC 19434 assessed as growth inhibition by broth dilution method
[6] = system: Staphylococcus aureus; assay: Antibacterial activity against Staphylococcus aureus ATCC 29213 assessed as growth inhibition by broth dilution method
[7] = system: Acinetobacter baumannii; assay: Antibacterial activity against Acinetobacter baumannii ATCC 19606 assessed as growth inhibition by broth dilution method
[8] = system: Enterococcus faecalis; assay: Antibacterial activity against Enterococcus faecalis ATCC 29212 assessed as growth inhibition by broth dilution method
[9] = system: Campylobacter jejuni; assay: Antibacterial activity against Campylobacter jejuni NCTC 11168 assessed as growth inhibition by broth dilution method
[10] = system: Listeria monocytogenes; assay: Antibacterial activity against Listeria monocytogenes ATCC […] assessed as growth inhibition by broth dilution method

Row | MIC [1] | MIC [2] | MIC [3] | MIC [4] | MIC [5] | MIC [6] | MIC [7] | MIC [8] | MIC [9] | MIC [10] | Compound
1 | 6.25 µg/mL (≈ 4.15 µM) | 6.25 µg/mL (≈ 4.15 µM) | 50 µg/mL (≈ 33.2 µM) | 12.5 µg/mL (≈ 8.3 µM) | > 100 µg/mL | > 100 µg/mL | 12.5 µg/mL (≈ 8.3 µM) | > 100 µg/mL | 1.56 µg/mL (≈ 1.04 µM) | 50 µg/mL (≈ 33.2 µM) | CCCCCCC(=O)N[C@@H](C(=O)N[C@H](CCN)C(=O)NCC(=O)N[C@H](CO)C(=O)N[C@H](Cc1c[nH]c2ccccc12)C(=O)N[C@@H](CO)C(=O)N[C@@H](CCN)C(=O)N[C@H](CCN)C(=O)N[C@@H](Cc1ccccc1)C(=O)N[C@@H](CCC(=O)O)C(=O)N[C@H](C(=O)N[C@@H](C(=O)N[C@@H](C)C(=O)O)[C@@H](C)CC)C(C)C)C(C)C
2 | 12.5 µg/mL (≈ 8.14 µM) | 12.5 µg/mL (≈ 8.14 µM) | 100 µg/mL (≈ 65.2 µM) | 6.25 µg/mL (≈ 4.07 µM) | 100 µg/mL (≈ 65.2 µM) | 100 µg/mL (≈ 65.2 µM) | 50 µg/mL (≈ 32.6 µM) | 100 µg/mL (≈ 65.2 µM) | 0.78 µg/mL (≈ 0.508 µM) | 25 µg/mL (≈ 16.3 µM) | CCCCCCCCC(=O)N[C@@H](C(=O)N[C@H](CCN)C(=O)NCC(=O)N[C@H](CO)C(=O)N[C@H](Cc1c[nH]c2ccccc12)C(=O)N[C@@H](CO)C(=O)N[C@@H](CCN)C(=O)N[C@H](CCN)C(=O)N[C@@H](Cc1ccccc1)C(=O)N[C@@H](CCC(=O)O)C(=O)N[C@H](C(=O)N[C@@H](C(=O)N[C@@H](C)C(=O)O)[C@@H](C)CC)C(C)C)C(C)C
3 | 6.25 µg/mL (≈ 4.04 µM) | 6.25 µg/mL (≈ 4.04 µM) | > 100 µg/mL | 12.5 µg/mL (≈ 8.07 µM) | 100 µg/mL (≈ 64.6 µM) | > 100 µg/mL | 12.5 µg/mL (≈ 8.07 µM) | > 100 µg/mL | 0.4 µg/mL (≈ 0.258 µM) | 25 µg/mL (≈ 16.1 µM) | CCCCCCCCCC(=O)N[C@@H](C(=O)N[C@H](CCN)C(=O)NCC(=O)N[C@H](CO)C(=O)N[C@H](Cc1c[nH]c2ccccc12)C(=O)N[C@@H](CO)C(=O)N[C@@H](CCN)C(=O)N[C@H](CCN)C(=O)N[C@@H](Cc1ccccc1)C(=O)N[C@@H](CCC(=O)O)C(=O)N[C@H](C(=O)N[C@@H](C(=O)N[C@@H](C)C(=O)O)[C@@H](C)CC)C(C)C)C(C)C
4 | 6.25 µg/mL (≈ 4 µM) | 6.25 µg/mL (≈ 4 µM) | > 100 µg/mL | 12.5 µg/mL (≈ 8 µM) | 100 µg/mL (≈ 64 µM) | > 100 µg/mL | 12.5 µg/mL (≈ 8 µM) | > 100 µg/mL | 0.4 µg/mL (≈ 0.256 µM) | 25 µg/mL (≈ 16 µM) | CCCCCCCCCCC(=O)N[C@@H](C(=O)N[C@H](CCN)C(=O)NCC(=O)N[C@H](CO)C(=O)N[C@H](Cc1c[nH]c2ccccc12)C(=O)N[C@@H](CO)C(=O)N[C@@H](CCN)C(=O)N[C@H](CCN)C(=O)N[C@@H](Cc1ccccc1)C(=O)N[C@@H](CCC(=O)O)C(=O)N[C@H](C(=O)N[C@@H](C(=O)N[C@@H](C)C(=O)O)[C@@H](C)CC)C(C)C)C(C)C
5 | > 100 µg/mL | > 100 µg/mL | > 100 µg/mL | > 100 µg/mL | > 100 µg/mL | > 100 µg/mL | > 100 µg/mL | > 100 µg/mL | 12.5 µg/mL (≈ 7.79 µM) | > 100 µg/mL | CCCCCCCCCCCCCC(=O)N[C@@H](C(=O)N[C@H](CCN)C(=O)NCC(=O)N[C@H](CO)C(=O)N[C@H](Cc1c[nH]c2ccccc12)C(=O)N[C@@H](CO)C(=O)N[C@@H](CCN)C(=O)N[C@H](CCN)C(=O)N[C@@H](Cc1ccccc1)C(=O)N[C@@H](CCC(=O)O)C(=O)N[C@H](C(=O)N[C@@H](C(=O)N[C@@H](C)C(=O)O)[C@@H](C)CC)C(C)C)C(C)C
6 | > 100 µg/mL | > 100 µg/mL | > 100 µg/mL | > 100 µg/mL | > 100 µg/mL | > 100 µg/mL | > 100 µg/mL | > 100 µg/mL | 50 µg/mL (≈ 30.6 µM) | > 100 µg/mL | CCCCCCCCCCCCCCCC(=O)N[C@@H](C(=O)N[C@H](CCN)C(=O)NCC(=O)N[C@H](CO)C(=O)N[C@H](Cc1c[nH]c2ccccc12)C(=O)N[C@@H](CO)C(=O)N[C@@H](CCN)C(=O)N[C@H](CCN)C(=O)N[C@@H](Cc1ccccc1)C(=O)N[C@@H](CCC(=O)O)C(=O)N[C@H](C(=O)N[C@@H](C(=O)N[C@@H](C)C(=O)O)[C@@H](C)CC)C(C)C)C(C)C
7 | 100 µg/mL (≈ 61.9 µM) | 6.25 µg/mL (≈ 3.87 µM) | > 100 µg/mL | > 100 µg/mL | > 100 µg/mL | > 100 µg/mL | > 100 µg/mL | > 100 µg/mL | 1.56 µg/mL (≈ 0.966 µM) | 100 µg/mL (≈ 61.9 µM) | CC[C@H](C)[C@@H](NC(=O)[C@@H](NC(=O)[C@H](CCC(=O)O)NC(=O)[C@H](Cc1ccccc1)NC(=O)[C@@H](CCN)NC(=O)[C@H](CCN)NC(=O)[C@H](CO)NC(=O)[C@@H](Cc1c[nH]c2ccccc12)NC(=O)[C@@H](CO)NC(=O)CNC(=O)[C@@H](CCN)NC(=O)[C@H](NC(=O)CCC1c2ccccc2-c2ccccc21)C(C)C)C(C)C)C(=O)N[C@@H](C)C(=O)O
8 | 12.5 µg/mL (≈ 7.68 µM) | 6.25 µg/mL (≈ 3.84 µM) | > 100 µg/mL | 12.5 µg/mL (≈ 7.68 µM) | > 100 µg/mL | > 100 µg/mL | 25 µg/mL (≈ 15.4 µM) | > 100 µg/mL | 1.56 µg/mL (≈ 0.959 µM) | 50 µg/mL (≈ 30.7 µM) | CC[C@H](C)[C@@H](NC(=O)[C@@H](NC(=O)[C@H](CCC(=O)O)NC(=O)[C@H](Cc1ccccc1)NC(=O)[C@@H](CCN)NC(=O)[C@H](CCN)NC(=O)[C@H](CO)NC(=O)[C@@H](Cc1c[nH]c2ccccc12)NC(=O)[C@@H](CO)NC(=O)CNC(=O)[C@@H](CCN)NC(=O)[C@H](NC(=O)CCc1c2ccccc2cc2ccccc12)C(C)C)C(C)C)C(=O)N[C@@H](C)C(=O)O
9 | 12.5 µg/mL (≈ 7.96 µM) | 6.25 µg/mL (≈ 3.98 µM) | 50 µg/mL (≈ 31.8 µM) | 6.25 µg/mL (≈ 3.98 µM) | 50 µg/mL (≈ 31.8 µM) | 50 µg/mL (≈ 31.8 µM) | 12.5 µg/mL (≈ 7.96 µM) | 50 µg/mL (≈ 31.8 µM) | 1.56 µg/mL (≈ 0.993 µM) | 25 µg/mL (≈ 15.9 µM) | CC[C@H](C)[C@@H](NC(=O)[C@@H](NC(=O)[C@H](CCC(=O)O)NC(=O)[C@H](Cc1ccccc1)NC(=O)[C@@H](CCN)NC(=O)[C@H](CCN)NC(=O)[C@H](CO)NC(=O)[C@@H](Cc1c[nH]c2ccccc12)NC(=O)[C@@H](CO)NC(=O)CNC(=O)[C@@H](CCN)NC(=O)[C@H](NC(=O)CC12CC3CC(CC(C3)C1)C2)C(C)C)C(C)C)C(=O)N[C@@H](C)C(=O)O
10 | > 100 µg/mL | > 100 µg/mL | > 100 µg/mL | > 100 µg/mL | > 100 µg/mL | > 100 µg/mL | > 100 µg/mL | > 100 µg/mL | > 100 µg/mL | > 100 µg/mL | CC[C@H](C)[C@@H](NC(=O)[C@@H](NC(=O)[C@H](CCC(=O)O)NC(=O)[C@H](Cc1ccccc1)NC(=O)[C@@H](CCN)NC(=O)[C@H](CCN)NC(=O)[C@H](CO)NC(=O)[C@@H](Cc1c[nH]c2ccccc12)NC(=O)[C@@H](CO)NC(=O)CNC(=O)[C@@H](CCN)NC(=O)[C@H](NC(=O)COCCOCCOC)C(C)C)C(C)C)C(=O)N[C@@H](C)C(=O)O
11 | 50 µg/mL (≈ 30.8 µM) | 50 µg/mL (≈ 30.8 µM) | > 100 µg/mL | 50 µg/mL (≈ 30.8 µM) | > 100 µg/mL | > 100 µg/mL | > 100 µg/mL | > 100 µg/mL | 50 µg/mL (≈ 30.8 µM) | > 100 µg/mL | CC[C@H](C)[C@@H](NC(=O)[C@@H](NC(=O)[C@H](CCC(=O)O)NC(=O)[C@H](Cc1ccccc1)NC(=O)[C@@H](CCN)NC(=O)[C@H](CCN)NC(=O)[C@H](CO)NC(=O)[C@@H](Cc1c[nH]c2ccccc12)NC(=O)[C@@H](CO)NC(=O)CNC(=O)[C@@H](CCN)NC(=O)[C@H](NC(=O)CCCC[C@@H]1SC[C@@H]2NC(=O)N[C@@H]21)C(C)C)C(C)C)C(=O)N[C@@H](C)C(=O)O
